# Measurements: US20100160454A1, “ANTIMICROBIAL AGENTS, COMPOSITIONS AND PRODUCTS CONTAINING THE SAME, AND METHODS OF USING THE COMPOSITIONS AND PRODUCTS” (Eastman Chemical Company, priority 2008, published 2010)
# Legend:
# Test in all cases: Challenge testing against pathogenic fungi, growth rating in broth tubes
# Format in all cases: cell-based
# Design in all cases: key: 0: No visible growth; 1: Some growth in tube; 2: Moderate growth in tube; 3: Good growth in tube; 4: Extreme growth in tube
# [1] = test system: Malassezia furfur (ATCC 96809)
# Experimental: (§1) Both Microsporum canis and Trichophyton rubrum were grown on Sabouraud dextrose broth, while Malassezia fufur was grown in Sabouraud dextrose broth supplemented with 2% (v/v) of olive oil and 0.2% (v/v) of Tween™ 80; incubation was at 22°±2° C. under continuous agitation by stirring for 10 days. The organisms were grown to a density of between 1.0×10^3 to 1.0×10^4 cfu/g. The actual inoculation cell density of these challenges were determined by diluting in sterile buffer water and (spread-plate method) plating for enumeration.
# (§2) Challenge organisms were used to inoculate tubes of 1,4-CHDM-D90 test concentrations prepared in Sabouraud dextrose broth (or Sabouraud dextrose broth supplemented with olive oil-Tween™ 80 with M. furfur). The inoculations were in the amount of 1.5 mL aliquots of each culture with static incubation at 22±2° C. Subcultures were made at 3-, 14- and 30-day increments. All challenges were conducted in triplicate. In the case of M. canis, the growth response was assessed by the visual presence/absence of growth in the tubes; in the case of T. rubrum, a respiratory (redox) dye (0.2% w/v aqueous INT solution: 2-[4-iodophenyl)-3-4-nitrophenyl]-5-phenyl tetrazolium chloride) was added to the tubes, turning red if the organism was viable; and, finally, in the case of M. furfur, the growth response was assessed based upon pellicle formation in the tubes at the meniscus. The test formulations and challenge test results, as well as 30-day MICs (Minimum Inhibitory Concentration), are in Tables 7-9 for the three organisms using the following growth rating system:
# (§3) • 0: No visible growth • 1: Some growth in tube • 2: Moderate growth in tube • 3: Good growth in tube • 4: Extreme growth in tube
# [2] = test system: Microsporum canis (ATTC 9084)
# Experimental: as §1, §2, §3
# [3] = test system: Trichophyton rubrum (ATCC 10218)
# Experimental: as §1, §2, §3
Compound,"M. furfur growth rating, 3 day ([1]; 0.5% weight/volume)","M. furfur growth rating, 14 day ([1]; 0.5% weight/volume)","M. furfur growth rating, 30 day ([1]; 0.5% weight/volume)","M. furfur growth rating, 3 day ([1]; 1.25% weight/volume)","M. furfur growth rating, 14 day ([1]; 1.25% weight/volume)","M. furfur growth rating, 30 day ([1]; 1.25% weight/volume)","M. furfur growth rating, 3 day ([1]; 2.5% weight/volume)","M. furfur growth rating, 14 day ([1]; 2.5% weight/volume)","M. furfur growth rating, 30 day ([1]; 2.5% weight/volume)","M. furfur growth rating, 3 day ([1]; 5.0% weight/volume)","M. furfur growth rating, 14 day ([1]; 5.0% weight/volume)","M. furfur growth rating, 30 day ([1]; 5.0% weight/volume)","M. canis growth rating, 3 day ([2]; 0.5% weight/volume)","M. canis growth rating, 14 day ([2]; 0.5% weight/volume)","M. canis growth rating, 30 day ([2]; 0.5% weight/volume)","M. canis growth rating, 3 day ([2]; 1.25% weight/volume)","M. canis growth rating, 14 day ([2]; 1.25% weight/volume)","M. canis growth rating, 30 day ([2]; 1.25% weight/volume)","M. canis growth rating, 3 day ([2]; 2.5% weight/volume)","M. canis growth rating, 14 day ([2]; 2.5% weight/volume)",also measured
"OCC1CCCC(CO)C1 (stereo not drawn) [1,3-CHDM, 1,3-cyclohexanedimethanol]",0,1,3,0,2,3,0,0,0,0,2,3,2,1,1,2,1,1,0,0,"M. canis growth rating, 30 day ([2]; 2.5% weight/volume): 0; M. canis growth rating, 3 day ([2]; 5.0% weight/volume): 2; M. canis growth rating, 14 day ([2]; 5.0% weight/volume): 1; M. canis growth rating, 30 day ([2]; 5.0% weight/volume): 1; T. rubrum growth rating, 3 day ([3]; 0.5% weight/volume): 0; T. rubrum growth rating, 14 day ([3]; 0.5% weight/volume): 2; T. rubrum growth rating, 30 day ([3]; 0.5% weight/volume): 1; T. rubrum growth rating, 3 day ([3]; 1.25% weight/volume): 1; T. rubrum growth rating, 14 day ([3]; 1.25% weight/volume): 0; T. rubrum growth rating, 30 day ([3]; 1.25% weight/volume): 0; T. rubrum growth rating, 3 day ([3]; 2.5% weight/volume): 0; T. rubrum growth rating, 14 day ([3]; 2.5% weight/volume): 0; T. rubrum growth rating, 30 day ([3]; 2.5% weight/volume): 0; T. rubrum growth rating, 3 day ([3]; 5.0% weight/volume): 2; T. rubrum growth rating, 14 day ([3]; 5.0% weight/volume): 0; T. rubrum growth rating, 30 day ([3]; 5.0% weight/volume): 0"
"OCC1CCC(CO)CC1 (stereo not drawn) [1,4-CHDM, 1,4-cyclohexanedimethanol]",0,1,2,0,0,0,0,0,0,0,0,0,2,1,1,2,1,1,2,0,"M. canis growth rating, 30 day ([2]; 2.5% weight/volume): 0; M. canis growth rating, 3 day ([2]; 5.0% weight/volume): 0; M. canis growth rating, 14 day ([2]; 5.0% weight/volume): 0; M. canis growth rating, 30 day ([2]; 5.0% weight/volume): 0; T. rubrum growth rating, 3 day ([3]; 0.5% weight/volume): 1; T. rubrum growth rating, 14 day ([3]; 0.5% weight/volume): 1; T. rubrum growth rating, 30 day ([3]; 0.5% weight/volume): 1; T. rubrum growth rating, 3 day ([3]; 1.25% weight/volume): 0; T. rubrum growth rating, 14 day ([3]; 1.25% weight/volume): 0; T. rubrum growth rating, 30 day ([3]; 1.25% weight/volume): 0; T. rubrum growth rating, 3 day ([3]; 2.5% weight/volume): 0; T. rubrum growth rating, 14 day ([3]; 2.5% weight/volume): 0; T. rubrum growth rating, 30 day ([3]; 2.5% weight/volume): 0; T. rubrum growth rating, 3 day ([3]; 5.0% weight/volume): 1; T. rubrum growth rating, 14 day ([3]; 5.0% weight/volume): 0; T. rubrum growth rating, 30 day ([3]; 5.0% weight/volume): 0"
"OCC1CCCCC1CO (stereo not drawn) [1,2-CHDM, 1,2-cyclohexanedimethanol]",0,0,0,0,0,0,0,0,0,0,0,0,2,1,1,1,0,0,0,0,"M. canis growth rating, 30 day ([2]; 2.5% weight/volume): 0; M. canis growth rating, 3 day ([2]; 5.0% weight/volume): 0; M. canis growth rating, 14 day ([2]; 5.0% weight/volume): 0; M. canis growth rating, 30 day ([2]; 5.0% weight/volume): 0; T. rubrum growth rating, 3 day ([3]; 0.5% weight/volume): 0; T. rubrum growth rating, 14 day ([3]; 0.5% weight/volume): 0; T. rubrum growth rating, 30 day ([3]; 0.5% weight/volume): 0; T. rubrum growth rating, 3 day ([3]; 1.25% weight/volume): 0; T. rubrum growth rating, 14 day ([3]; 1.25% weight/volume): 0; T. rubrum growth rating, 30 day ([3]; 1.25% weight/volume): 0; T. rubrum growth rating, 3 day ([3]; 2.5% weight/volume): 1; T. rubrum growth rating, 14 day ([3]; 2.5% weight/volume): 0; T. rubrum growth rating, 30 day ([3]; 2.5% weight/volume): 0; T. rubrum growth rating, 3 day ([3]; 5.0% weight/volume): 0; T. rubrum growth rating, 14 day ([3]; 5.0% weight/volume): 0; T. rubrum growth rating, 30 day ([3]; 5.0% weight/volume): 0"
"CC(O)CO (stereo not drawn) [PG, propylene glycol]",0,3,3,0,3,3,0,3,3,0,0,3,2,1,2,2,1,1,1,1,"M. canis growth rating, 30 day ([2]; 2.5% weight/volume): 2; M. canis growth rating, 3 day ([2]; 5.0% weight/volume): 1; M. canis growth rating, 14 day ([2]; 5.0% weight/volume): 1; M. canis growth rating, 30 day ([2]; 5.0% weight/volume): 2; T. rubrum growth rating, 3 day ([3]; 0.5% weight/volume): 0; T. rubrum growth rating, 14 day ([3]; 0.5% weight/volume): 1; T. rubrum growth rating, 30 day ([3]; 0.5% weight/volume): 1; T. rubrum growth rating, 3 day ([3]; 1.25% weight/volume): 1; T. rubrum growth rating, 14 day ([3]; 1.25% weight/volume): 0; T. rubrum growth rating, 30 day ([3]; 1.25% weight/volume): 1; T. rubrum growth rating, 3 day ([3]; 2.5% weight/volume): 1; T. rubrum growth rating, 14 day ([3]; 2.5% weight/volume): 0; T. rubrum growth rating, 30 day ([3]; 2.5% weight/volume): 1; T. rubrum growth rating, 3 day ([3]; 5.0% weight/volume): 1; T. rubrum growth rating, 14 day ([3]; 5.0% weight/volume): 0; T. rubrum growth rating, 30 day ([3]; 5.0% weight/volume): 1"
"CC1(C)C(O)C(C)(C)C1O (stereo not drawn) [TMCBD, 2,2,4,4-tetramethyl-1,3-cyclobutanediol]",0,1,2,0,1,2,0,0,0,0,0,0,2,1,1,2,1,0,2,1,"M. canis growth rating, 30 day ([2]; 2.5% weight/volume): 1; M. canis growth rating, 3 day ([2]; 5.0% weight/volume): 2; M. canis growth rating, 14 day ([2]; 5.0% weight/volume): 1; M. canis growth rating, 30 day ([2]; 5.0% weight/volume): 1; T. rubrum growth rating, 3 day ([3]; 0.5% weight/volume): 1; T. rubrum growth rating, 14 day ([3]; 0.5% weight/volume): 1; T. rubrum growth rating, 30 day ([3]; 0.5% weight/volume): 0; T. rubrum growth rating, 3 day ([3]; 1.25% weight/volume): 0; T. rubrum growth rating, 14 day ([3]; 1.25% weight/volume): 0; T. rubrum growth rating, 30 day ([3]; 1.25% weight/volume): 1; T. rubrum growth rating, 3 day ([3]; 2.5% weight/volume): 0; T. rubrum growth rating, 14 day ([3]; 2.5% weight/volume): 0; T. rubrum growth rating, 30 day ([3]; 2.5% weight/volume): 0; T. rubrum growth rating, 3 day ([3]; 5.0% weight/volume): 0; T. rubrum growth rating, 14 day ([3]; 5.0% weight/volume): 0; T. rubrum growth rating, 30 day ([3]; 5.0% weight/volume): 0"
"O=C([O-])CN(CCN(CC(=O)[O-])CC(=O)O)CC(=O)O.[Na+].[Na+] [EDTA, Na2EDTA]",0,0,0,0,0,0,0,0,0,0,0,0,2,1,0,2,1,0,2,1,"M. canis growth rating, 30 day ([2]; 2.5% weight/volume): 0; M. canis growth rating, 3 day ([2]; 5.0% weight/volume): 2; M. canis growth rating, 14 day ([2]; 5.0% weight/volume): 0; M. canis growth rating, 30 day ([2]; 5.0% weight/volume): 0; T. rubrum growth rating, 3 day ([3]; 0.5% weight/volume): 1; T. rubrum growth rating, 14 day ([3]; 0.5% weight/volume): 0; T. rubrum growth rating, 30 day ([3]; 0.5% weight/volume): 0; T. rubrum growth rating, 3 day ([3]; 1.25% weight/volume): 0; T. rubrum growth rating, 14 day ([3]; 1.25% weight/volume): 0; T. rubrum growth rating, 30 day ([3]; 1.25% weight/volume): 0; T. rubrum growth rating, 3 day ([3]; 2.5% weight/volume): 1; T. rubrum growth rating, 14 day ([3]; 2.5% weight/volume): 0; T. rubrum growth rating, 30 day ([3]; 2.5% weight/volume): 0; T. rubrum growth rating, 3 day ([3]; 5.0% weight/volume): 1; T. rubrum growth rating, 14 day ([3]; 5.0% weight/volume): 0; T. rubrum growth rating, 30 day ([3]; 5.0% weight/volume): 0"
